US9353072B2, “Antimicrobial substituted thiazoles and methods of use” (Purdue Research Foundation, priority 2012, dated 2016)
Values after ≈ are worked out from the molar mass of the structure shown. Where two headings read alike, the source gives them in different places.

Legend:
[1] = tested on: MRSA ATCC 700699 (NRS1, VISA); assay: MIC/MBC broth microdilution, NRS1 (ATCC 700699); format: cell-based; details: Staphylococcus aureus
Method: (§1) Determination of minimum inhibitory concentration (MIC). The MICs of the lead thiazole compound (compound 1a) and nine derivatives tested against all 18 MRSA strains were determined, in triplicate samples, using the broth microdilution method in accordance with the recommendations contained in the CLSI guidelines.

NRS119 = assay: MIC/MBC broth microdilution, NRS119; format: cell-based; details: Staphylococcus aureus
Method: as §1

VISA HIP07256 (NRS19) = assay: MIC/MBC broth microdilution, NRS19 (VISA HIP07256); format: cell-based; details: Staphylococcus aureus, Table 8, NRS19 (VISA); for MBC: read-out: MBC; for MIC: read-out: MIC
Method: as §1

VRSA (VRS10) = assay: MIC/MBC broth microdilution, VRSA (VRS10); format: cell-based, Staphylococcus aureus; details: Staphylococcus aureus, Table 7, VRSA (VRS10); for MBC: read-out: Minimum Bactericidal Concentration; for MIC: read-out: Minimum Inhibitory Concentration
Method: as §1

NRS194 = assay: MIC/MBC broth microdilution, NRS194; format: cell-based; details: Staphylococcus aureus; for MBC: Table 8, read-out: MBC; for MIC: Table 8, read-out: MIC
Method: as §1

MRSA NRS384 (USA300) = assay: MIC/MBC broth microdilution, NRS384 (USA300); format: cell-based; details: Staphylococcus aureus, Table 8, NRS384; for MBC: read-out: MBC; for MIC: read-out: MIC
Method: as §1

VISA LIM 3 (NRS37) = assay: MIC/MBC broth microdilution, NRS37 (VISA LIM 3); format: cell-based; details: Staphylococcus aureus, Table 8, NRS37 (VISA); for MBC: read-out: MBC; for MIC: read-out: MIC
Method: as §1

MRSA USA500 (NRS385) = assay: MIC/MBC broth microdilution, NRS385 (USA500); format: cell-based; details: Staphylococcus aureus, Table 8, NRS385; for MBC: read-out: MBC; for MIC: read-out: MIC
Method: as §1

MRSA ATCC 43300 = assay: MIC/MBC broth microdilution, MRSA ATCC 43300; format: cell-based, Staphylococcus aureus; details: Staphylococcus aureus
Method: as §1

NRS107 = assay: MIC/MBC broth microdilution, NRS107; format: cell-based; details: Staphylococcus aureus; for MBC: Table 8, read-out: MBC; for MIC: Table 8, read-out: MIC
Method: as §1

MRSA USA400 (NRS123) = assay: MIC/MBC broth microdilution, NRS123 (USA400); format: cell-based; details: Staphylococcus aureus, Table 8, NRS123; for MBC: read-out: MBC; for MIC: read-out: MIC
Method: as §1

[2] = Table 7, VISA (NRS1), read-out: Minimum Bactericidal Concentration
[3] = Table 7, VISA (NRS1), read-out: Minimum Inhibitory Concentration
[4] = Table 8, NRS1 (VISA), read-out: MBC
[5] = Table 8, NRS1 (VISA), triplicates, 20 hours, read-out: MIC
[6] = NRS 119 / VISA, Table 7, VISA (NRS119), read-out: Minimum Bactericidal Concentration
[7] = NRS 119 / VISA, Table 7, VISA (NRS119), read-out: Minimum Inhibitory Concentration
[8] = Table 6, MRSA ATCC 43300, 128 μM down to 1.0 μM, 20 hours, read-out: MIC
[9] = Table 6, MRSA ATCC 43300, plating on TSA, 20 hour incubation, read-out: MBC
[10] = Table 7, MRSA (ATCC 43300), read-out: Minimum Bactericidal Concentration
[11] = Table 7, MRSA (ATCC 43300), read-out: Minimum Inhibitory Concentration
[12] = Table 8, ATCC 43300, read-out: MBC
[13] = Table 8, ATCC 43300, read-out: MIC

Row | MIC [1, 3] [µM] | MIC [1, 5] [µM] | MIC (NRS119; [7]) [µM] | MIC (NRS119; Table 8, NRS119, read-out: MIC) [µM] | MIC (VISA HIP07256 (NRS19)) [µM] | MIC (VRSA (VRS10)) [µM] | MIC (NRS194) [µM] | MIC (MRSA NRS384 (USA300)) [µM] | MIC (VISA LIM 3 (NRS37)) [µM] | MIC (MRSA USA500 (NRS385)) [µM] | SMILES | MBC [1, 2] [µM] | MBC [1, 4] [µM] | MBC (NRS119; [6]) [µM] | MBC (NRS119; Table 8, NRS119, read-out: MBC) [µM] | MBC (VISA HIP07256 (NRS19)) [µM] | MBC (VRSA (VRS10)) [µM] | MBC (NRS194) [µM] | MBC (MRSA NRS384 (USA300)) [µM] | MBC (VISA LIM 3 (NRS37)) [µM] | MBC (MRSA USA500 (NRS385)) [µM] | further results
1 | 8 (≈ 3.13 µg/mL) | 16 (≈ 6.26 µg/mL) | 16 (≈ 6.26 µg/mL) | 16 (≈ 6.26 µg/mL) | 32 (≈ 12.5 µg/mL) | 16 (≈ 6.26 µg/mL) | 16 (≈ 6.26 µg/mL) | 16 (≈ 6.26 µg/mL) | 8 (≈ 3.13 µg/mL) | 16 (≈ 6.26 µg/mL) | CC(=O)c1ccc(-c2ccc(-c3nc(C)c(/C(C)=N\NC(=N)N)s3)cc2)cc1 [Compound M11, (Z)-2-(1-(2-(4′-acetyl-[1,1′-biphenyl]-4-yl)-4-methylthiazol-5-yl)ethylidene)hydrazinecarboximidamide] | 32 (≈ 12.5 µg/mL) | 16 (≈ 6.26 µg/mL) | 32 (≈ 12.5 µg/mL) | 32 (≈ 12.5 µg/mL) | 32 (≈ 12.5 µg/mL) | 16 (≈ 6.26 µg/mL) | 16 (≈ 6.26 µg/mL) | 16 (≈ 6.26 µg/mL) | 16 (≈ 6.26 µg/mL) | 16 (≈ 6.26 µg/mL) | MIC (MRSA ATCC 43300; [8]): 4 µM (≈ 1.57 µg/mL); MBC (MRSA ATCC 43300; [9]): 8 µM (≈ 3.13 µg/mL); MBC (MRSA ATCC 43300; [10]): 8 µM (≈ 3.13 µg/mL); MIC (MRSA ATCC 43300; [11]): 8 µM (≈ 3.13 µg/mL); MBC (MRSA ATCC 43300; [12]): 16 µM (≈ 6.26 µg/mL); MIC (MRSA ATCC 43300; [13]): 16 µM (≈ 6.26 µg/mL); MBC (NRS107): 32 µM (≈ 12.5 µg/mL); MIC (NRS107): 16 µM (≈ 6.26 µg/mL); MBC (MRSA USA400 (NRS123)): 16 µM (≈ 6.26 µg/mL); MIC (MRSA USA400 (NRS123)): 16 µM (≈ 6.26 µg/mL)
2 | 4 (≈ 1.47 µg/mL) | 8 (≈ 2.94 µg/mL) | 16 (≈ 5.88 µg/mL) | 16 (≈ 5.88 µg/mL) | 16 (≈ 5.88 µg/mL) | 8 (≈ 2.94 µg/mL) | 16 (≈ 5.88 µg/mL) | 16 (≈ 5.88 µg/mL) | 8 (≈ 2.94 µg/mL) | 16 (≈ 5.88 µg/mL) | C/C(=N/NC(=N)N)c1sc(-c2ccc(-c3ccc(F)cc3)cc2)nc1C [Compound M12, (Z)-2-(1-(2-(4′-fluoro-[1,1′-biphenyl]-4-yl)-4-methylthiazol-5-yl)ethylidene)hydrazinecarboximidamide] | 8 (≈ 2.94 µg/mL) | 8 (≈ 2.94 µg/mL) | 16 (≈ 5.88 µg/mL) | 32 (≈ 11.8 µg/mL) | 16 (≈ 5.88 µg/mL) | 64 (≈ 23.5 µg/mL) | 32 (≈ 11.8 µg/mL) | 16 (≈ 5.88 µg/mL) | 16 (≈ 5.88 µg/mL) | 16 (≈ 5.88 µg/mL) | MIC (MRSA ATCC 43300; [8]): 4 µM (≈ 1.47 µg/mL); MBC (MRSA ATCC 43300; [9]): > 16 µM; MBC (MRSA ATCC 43300; [10]): 16 µM (≈ 5.88 µg/mL); MIC (MRSA ATCC 43300; [11]): 4 µM (≈ 1.47 µg/mL); MBC (MRSA ATCC 43300; [12]): 16 µM (≈ 5.88 µg/mL); MIC (MRSA ATCC 43300; [13]): 16 µM (≈ 5.88 µg/mL); MBC (NRS107): 16 µM (≈ 5.88 µg/mL); MIC (NRS107): 8 µM (≈ 2.94 µg/mL); MBC (MRSA USA400 (NRS123)): 32 µM (≈ 11.8 µg/mL); MIC (MRSA USA400 (NRS123)): 16 µM (≈ 5.88 µg/mL)
3 | 4 (≈ 1.67 µg/mL) | 8 (≈ 3.34 µg/mL) | 16 (≈ 6.68 µg/mL) | 16 (≈ 6.68 µg/mL) | 8 (≈ 3.34 µg/mL) | 4 (≈ 1.67 µg/mL) | 16 (≈ 6.68 µg/mL) | 16 (≈ 6.68 µg/mL) | 8 (≈ 3.34 µg/mL) | 8 (≈ 3.34 µg/mL) | C/C(=N/NC(=N)N)c1sc(-c2ccc(-c3ccc(C(F)(F)F)cc3)cc2)nc1C [Compound M13] | 8 (≈ 3.34 µg/mL) | 8 (≈ 3.34 µg/mL) | 32 (≈ 13.4 µg/mL) | 16 (≈ 6.68 µg/mL) | 8 (≈ 3.34 µg/mL) | 16 (≈ 6.68 µg/mL) | 32 (≈ 13.4 µg/mL) | 16 (≈ 6.68 µg/mL) | 8 (≈ 3.34 µg/mL) | 8 (≈ 3.34 µg/mL) | MIC (MRSA ATCC 43300; [8]): 8 µM (≈ 3.34 µg/mL); MBC (MRSA ATCC 43300; [9]): 16 µM (≈ 6.68 µg/mL); MBC (MRSA ATCC 43300; [10]): 16 µM (≈ 6.68 µg/mL); MIC (MRSA ATCC 43300; [11]): 8 µM (≈ 3.34 µg/mL); MBC (MRSA ATCC 43300; [12]): 8 µM (≈ 3.34 µg/mL); MIC (MRSA ATCC 43300; [13]): 8 µM (≈ 3.34 µg/mL); MBC (NRS107): 16 µM (≈ 6.68 µg/mL); MIC (NRS107): 8 µM (≈ 3.34 µg/mL); MBC (MRSA USA400 (NRS123)): 32 µM (≈ 13.4 µg/mL); MIC (MRSA USA400 (NRS123)): 16 µM (≈ 6.68 µg/mL)
4 | 2 (≈ 0.799 µg/mL) | 4 (≈ 1.6 µg/mL) | 4 (≈ 1.6 µg/mL) | 4 (≈ 1.6 µg/mL) | 4 (≈ 1.6 µg/mL) | 8 (≈ 3.2 µg/mL) | 4 (≈ 1.6 µg/mL) | 4 (≈ 1.6 µg/mL) | 4 (≈ 1.6 µg/mL) | 4 (≈ 1.6 µg/mL) | C/C(=N/NC(=N)N)c1sc(-c2ccc(-c3cccc4ccccc34)cc2)nc1C [Compound M14] | 4 (≈ 1.6 µg/mL) | 4 (≈ 1.6 µg/mL) | 16 (≈ 6.39 µg/mL) | 4 (≈ 1.6 µg/mL) | 4 (≈ 1.6 µg/mL) | 8 (≈ 3.2 µg/mL) | 4 (≈ 1.6 µg/mL) | 4 (≈ 1.6 µg/mL) | 4 (≈ 1.6 µg/mL) | 8 (≈ 3.2 µg/mL) | MIC (MRSA ATCC 43300; [8]): 4 µM (≈ 1.6 µg/mL); MBC (MRSA ATCC 43300; [9]): 8 µM (≈ 3.2 µg/mL); MBC (MRSA ATCC 43300; [10]): 16 µM (≈ 6.39 µg/mL); MIC (MRSA ATCC 43300; [11]): 8 µM (≈ 3.2 µg/mL); MBC (MRSA ATCC 43300; [12]): 4 µM (≈ 1.6 µg/mL); MIC (MRSA ATCC 43300; [13]): 4 µM (≈ 1.6 µg/mL); MBC (NRS107): 4 µM (≈ 1.6 µg/mL); MIC (NRS107): 4 µM (≈ 1.6 µg/mL); MBC (MRSA USA400 (NRS123)): 4 µM (≈ 1.6 µg/mL); MIC (MRSA USA400 (NRS123)): 4 µM (≈ 1.6 µg/mL)
